SMILES strings stand for the structures. Numbered stars: 1 amine (or outer) side, 2 acyl side, 3 side chain; on linkers, the order of the positions; unused ones are H or OH. Bridge positions count the residues as written; N and C are the ends. Square brackets hold non-standard residues; d marks the D form. Side chains are listed from the residue outwards. Peptide text beside a SMILES is read from it. I, II: the chains in the order shown. * marks the point of attachment. C18 diacid = O=C(O)CCCCCCCCCCCCCCCCC(=O)*; γGlu = O=C(O)[C@H](CCC(=O)[*:2])N[*:1]; Ac4c = NC1(C(=O)O)CCC1; AEEA = NCCOCCOCC(=O)O

The nature of this data set: Thioflavin T (ThT) fibrillation assay for physical stability. In kind it is physicochemical. The following applies: 250 μM in 10 mM HEPES buffer, pH 7.5, 37° C., shaking 960 rpm. A digest of the protocol: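 Fibrillation was followed by ThT (1 μM) fluorescence every 20 min, 444/485 nm, for 250 μM peptide in 10 mM HEPES pH 7.5 shaken at 960 rpm, 37° C. Lag time (t0−2τ) and apparent rate constant (1/τ) come from a sigmoidal fit. Recovery is % of initial concentration remaining soluble after centrifugation and filtration (RP-HPLC).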
`CC(C)C[C@H](NC(=O)[C@H](CC(=O)O)NC(=O)[C@H](CC(C)C)NC(=O)[C@H](Cc1ccc(O)cc1)NC(=O)[C@H](CCCCN)NC(=O)[C@H](CO)NC(=O)[C@H](CC(C)C)NC(=O)[C@H](CC(=O)O)NC(=O)[C@H](CO)NC(=O)[C@@H](NC(=O)[C@H](Cc1ccccc1)NC(=O)[C@@H](NC(=O)CNC(=O)[C@H](CCC(N)=O)NC(=O)C1(NC(=O)[C@@H](N)Cc2c[nH]cn2)CCC1)[C@@H](C)O)[C@@H](C)O)C(=O)N[C@@H](CCCNC(=N)N)C(=O)N[C@@H](CCCNC(=N)N)C(=O)N[C@@H](C)C(=O)N[C@@H](CCCNC(=N)N)C(=O)N[C@@H](CC(=O)O)C(=O)N[C@@H](Cc1ccccc1)C(=O)N[C@H](C(=O)N[C@@H](CCC(N)=O)C(=O)N[C@@H](Cc1c[nH]c2ccccc12)C(=O)N[C@@H](CC(C)C)C(=O)N[C@@H](CC(C)C)C(=O)N[C@@H](CCCCNC(=O)CC[C@H](NC(=O)CC[C@H](NC(=O)COCCOCCNC(=O)COCCOCCNC(=O)CC[C@H](NC(=O)CC[C@H](NC(=O)CCCCCCCCCCCCCCCCC(=O)O)C(=O)O)C(=O)O)C(=O)O)C(=O)O)C(=O)N[C@H](C(N)=O)[C@@H](C)O)C(C)C` [Example 45, N^ε28-[(4S)-4-carboxy-4-[[(4S)-4-carboxy-4-[[2-[2-[2-[[2-[2-[2-[[(4S)-4-carboxy-4-[[(4S)-4-carboxy-4-(17-carboxyheptadecanoylamino)butanoyl]amino]butanoyl]amino]ethoxy]ethoxy]acetyl]amino]ethoxy]ethoxy]acetyl]amino]butanoyl]amino]butanoyl]-[Acb2,Leu10,Leu16,Arg20,Leu27,Lys28]-Glucagon amide] (H-H[Ac4c]QGTFTSDLSKYLDLRRARDFVQWLLK([γGlu-γGlu-AEEA-AEEA-γGlu-γGlu-C18 diacid])T-NH2; N-terminus assumed) displayed a THT assay Lag time (Ex. 76) of 45 h.
In turn, `CC(C)C[C@H](NC(=O)[C@H](CC(=O)O)NC(=O)[C@H](CC(C)C)NC(=O)[C@H](Cc1ccc(O)cc1)NC(=O)[C@H](CCCNC(=N)N)NC(=O)[C@H](CO)NC(=O)[C@H](CC(C)C)NC(=O)[C@H](CC(=O)O)NC(=O)[C@H](CO)NC(=O)[C@@H](NC(=O)[C@H](Cc1ccccc1)NC(=O)[C@@H](NC(=O)CNC(=O)[C@H](CCC(N)=O)NC(=O)C1(NC(=O)[C@@H](N)Cc2c[nH]cn2)CCC1)[C@@H](C)O)[C@@H](C)O)C(=O)N[C@@H](CCCNC(=N)N)C(=O)N[C@@H](CCCNC(=N)N)C(=O)N[C@@H](C)C(=O)N[C@@H](CCCNC(=N)N)C(=O)N[C@@H](CC(=O)O)C(=O)N[C@@H](Cc1ccccc1)C(=O)N[C@H](C(=O)N[C@@H](CCC(N)=O)C(=O)N[C@@H](Cc1c[nH]c2ccccc12)C(=O)N[C@@H](CC(C)C)C(=O)N[C@@H](CC(C)C)C(=O)N[C@@H](CCCCNC(=O)CC[C@H](NC(=O)CC[C@H](NC(=O)COCCOCCNC(=O)COCCOCCNC(=O)CC[C@H](NC(=O)CC[C@H](NC(=O)CCCCCCCCCCCCCCCCC(=O)O)C(=O)O)C(=O)O)C(=O)O)C(=O)O)C(=O)N[C@H](C(N)=O)[C@@H](C)O)C(C)C` [Example 46, N^ε28-[(4S)-4-carboxy-4-[[(4S)-4-carboxy-4-[[2-[2-[2-[[2-[2-[2-[[(4S)-4-carboxy-4-[[(4S)-4-carboxy-4-(17-carboxyheptadecanoylamino)butanoyl]amino]butanoyl]amino]ethoxy]ethoxy]acetyl]amino]ethoxy]ethoxy]acetyl]amino]butanoyl]amino]butanoyl]-[Acb2,Leu10,Arg12,Leu16,Arg20,Leu27,Lys28]-Glucagon amide] (H-H[Ac4c]QGTFTSDLSRYLDLRRARDFVQWLLK([γGlu-γGlu-AEEA-AEEA-γGlu-γGlu-C18 diacid])T-NH2; N-terminus assumed) came in with a THT assay Lag time (Ex. 76) of 45 h.
Compound `CC(C)C[C@H](NC(=O)[C@H](CC(=O)O)NC(=O)[C@H](CC(C)C)NC(=O)[C@H](Cc1ccc(O)cc1)NC(=O)[C@H](CCCCN)NC(=O)[C@H](CO)NC(=O)[C@H](CC(C)C)NC(=O)[C@H](CC(=O)O)NC(=O)[C@H](CO)NC(=O)[C@@H](NC(=O)[C@H](Cc1ccccc1)NC(=O)[C@@H](NC(=O)CNC(=O)[C@H](CCC(N)=O)NC(=O)C1(NC(=O)[C@@H](N)Cc2c[nH]cn2)CCC1)[C@@H](C)O)[C@@H](C)O)C(=O)N[C@@H](CCCCN)C(=O)N[C@@H](CCCNC(=N)N)C(=O)N[C@@H](C)C(=O)N[C@@H](CCCNC(=N)N)C(=O)N[C@@H](CCC(=O)O)C(=O)N[C@@H](Cc1ccccc1)C(=O)N[C@H](C(=O)N[C@@H](CCC(N)=O)C(=O)N[C@@H](Cc1c[nH]c2ccccc12)C(=O)N[C@@H](CC(C)C)C(=O)N[C@@H](CC(C)C)C(=O)N[C@@H](CCCCNC(=O)CC[C@H](NC(=O)CC[C@H](NC(=O)COCCOCCNC(=O)COCCOCCNC(=O)CC[C@H](NC(=O)CC[C@H](NC(=O)CCCCCCCCCCCCCCCCC(=O)O)C(=O)O)C(=O)O)C(=O)O)C(=O)O)C(=O)N[C@H](C(N)=O)[C@@H](C)O)C(C)C` [Example 47, N^ε28-[(4S)-4-carboxy-4-[[(4S)-4-carboxy-4-[[2-[2-[2-[[2-[2-[2-[[(4S)-4-carboxy-4-[[(4S)-4-carboxy-4-(17-carboxyheptadecanoylamino)butanoyl]amino]butanoyl]amino]ethoxy]ethoxy]acetyl]amino]ethoxy]ethoxy]acetyl]amino]butanoyl]amino]butanoyl]-[Acb2,Leu10,Leu16,Lys17,Arg20,Glu21,Leu27,Lys28]-Glucagon amide] (H-H[Ac4c]QGTFTSDLSKYLDLKRAREFVQWLLK([γGlu-γGlu-AEEA-AEEA-γGlu-γGlu-C18 diacid])T-NH2; N-terminus assumed) registered a THT assay Lag time (Ex. 76) of 45 h.
Under `CC(C)C[C@H](NC(=O)[C@H](CC(=O)O)NC(=O)[C@H](CC(C)C)NC(=O)[C@H](Cc1ccc(O)cc1)NC(=O)[C@H](CCCCN)NC(=O)[C@H](CO)NC(=O)[C@H](CC(C)C)NC(=O)[C@H](CC(=O)O)NC(=O)[C@H](CO)NC(=O)[C@@H](NC(=O)[C@H](Cc1ccccc1)NC(=O)[C@@H](NC(=O)CNC(=O)[C@H](CCC(N)=O)NC(=O)C1(NC(=O)[C@@H](N)Cc2c[nH]cn2)CCC1)[C@@H](C)O)[C@@H](C)O)C(=O)N[C@@H](CCCCN)C(=O)N[C@@H](CCCNC(=N)N)C(=O)N[C@@H](C)C(=O)N[C@@H](CCCNC(=N)N)C(=O)N[C@@H](CCC(=O)O)C(=O)N[C@@H](Cc1ccccc1)C(=O)N[C@H](C(=O)N[C@@H](CCC(N)=O)C(=O)N[C@@H](Cc1c[nH]c2ccccc12)C(=O)N[C@@H](CC(C)C)C(=O)N[C@@H](CC(C)C)C(=O)N[C@@H](CCCCNC(=O)CNC(=O)[C@H](CO)NC(=O)[C@H](CCC(=O)O)NC(=O)CNC(=O)[C@H](CO)NC(=O)CC[C@H](NC(=O)CC[C@H](NC(=O)CCCCCCCCCCCCCCCCC(=O)O)C(=O)O)C(=O)O)C(=O)N[C@H](C(N)=O)[C@@H](C)O)C(C)C` [Example 48] (I: H-H[Ac4c]QGTFTSDLSKYLDLKRAREFVQWLLKT-NH2 / II: {C18 diacid-γGlu-γGlu}-SGESG; amide I:28-II:C; N-terminus assumed) stands 45 h; under `CC(C)C[C@H](NC(=O)[C@H](CC(=O)O)NC(=O)[C@H](CC(C)C)NC(=O)[C@H](Cc1ccc(O)cc1)NC(=O)[C@H](CCCCN)NC(=O)[C@H](CO)NC(=O)[C@H](CC(C)C)NC(=O)[C@H](CC(=O)O)NC(=O)[C@H](CO)NC(=O)[C@@H](NC(=O)[C@H](Cc1ccccc1)NC(=O)[C@@H](NC(=O)CNC(=O)[C@H](CCC(N)=O)NC(=O)C1(NC(=O)[C@@H](N)Cc2c[nH]cn2)CCC1)[C@@H](C)O)[C@@H](C)O)C(=O)N[C@@H](CCCNC(=N)N)C(=O)N[C@@H](CCCNC(=N)N)C(=O)N[C@@H](C)C(=O)N[C@@H](CCCNC(=N)N)C(=O)N[C@@H](CCC(=O)O)C(=O)N[C@@H](Cc1ccccc1)C(=O)N[C@H](C(=O)N[C@@H](CCC(N)=O)C(=O)N[C@@H](Cc1c[nH]c2ccccc12)C(=O)N[C@@H](CC(C)C)C(=O)N[C@@H](CC(C)C)C(=O)N[C@@H](CCCCNC(=O)CC[C@H](NC(=O)CC[C@H](NC(=O)COCCOCCNC(=O)COCCOCCNC(=O)CC[C@H](NC(=O)CC[C@H](NC(=O)CCCCCCCCCCCCCCCCC(=O)O)C(=O)O)C(=O)O)C(=O)O)C(=O)O)C(=O)N[C@H](C(N)=O)[C@@H](C)O)C(C)C` [Example 49, N^ε28-[(4S)-4-carboxy-4-[[(4S)-4-carboxy-4-[[2-[2-[2-[[2-[2-[2-[[(4S)-4-carboxy-4-[[(4S)-4-carboxy-4-(17-carboxyheptadecanoylamino)butanoyl]amino]butanoyl]amino]ethoxy]ethoxy]acetyl]amino]ethoxy]ethoxy]acetyl]amino]butanoyl]amino]butanoyl]-[Acb2,Leu10,Leu16,Arg20,Glu21,Leu27,Lys28]-Glucagon amide] (H-H[Ac4c]QGTFTSDLSKYLDLRRAREFVQWLLK([γGlu-γGlu-AEEA-AEEA-γGlu-γGlu-C18 diacid])T-NH2; N-terminus assumed), 45 h.

The record behind these values is patent US9474790B2, “Stable, protracted GLP-1/glucagon receptor co-agonists for medical use” (Novo Nordisk A/S, priority 2013, dated 2016).
